Laboratory results as given in patent US12649750B2, “Macrocyclic compounds, compositions, and methods of using thereof” (Sionna Therapeutics Inc., priority 2022, dated 2026).
Like-named read-outs stand apart in the source and are kept apart here.

Question: Which ring closure, isolated yield (the molecule shown is the open-chain precursor, cc_pd bond, 20-membered ring, Pd(OAc)2/Cu(OAc)2, DMF/DMSO 9:1, 1.36 mM, 70.0 °C) does the source give for C=CS(=O)(=O)CC(C)(C)CCC[C@](C)(c1cccc(C[C@H](C)C(=O)OC)c1)c1nc(-c2cc(Oc3cc4cc[nH]c4c(F)c3F)ccc2F)n(C)n1 here?
Answer: 20%

Question: Which ring closure, isolated yield (from CCOC(=O)CCc1cccc(C(O)CCCC(C)(C)CSCCc2c(Oc3ccc(F)c(-c4n[nH]cc4C#N)c3)c(F)cc3[nH]ccc23)c1, other bond, 18-membered ring, cyanomethylenetributylphosphorane, 1,4-dioxane, 40.9 mM, 150.0 °C, 0.67 h) does the source give for CCOC(=O)CCc1cccc(C2CCCC(C)(C)CSCCc3c(c(F)cc4[nH]ccc34)Oc3ccc(F)c(c3)-c3nn2cc3C#N)c1 (stereo not drawn) here?
Answer: 46%

Question: With COC(=O)/C1=C\c2c(c(F)cc3[nH]ccc23)Oc2cccc(c2)-c2ccn(n2)C(c2cccc(Br)c2)CCCC(C)(C)CS1(=O)=O (stereo not drawn) as the compound, how does the ring closure, isolated yield (from COC(=O)CS(=O)(=O)CC(C)(C)CCCC(c1cccc(Br)c1)n1ccc(-c2cccc(Oc3c(F)cc4[nH]ccc4c3C=O)c2)n1, other bond, 18-membered ring, piperidine/rest truncated, toluene, 3.5 mM, 100.0 °C) read?
Answer: 43%

Question: For COC(=O)[C@@H](C)Cc1cccc([C@@]2(C)CCCC(C)(C)CS(=O)(=O)/C=C/c3c(c(F)c(F)c4[nH]ccc34)Sc3ccc(F)c(c3)-c3nc2nn3C)c1, which ring closure, isolated yield (from C=CS(=O)(=O)CC(C)(C)CCC[C@](C)(c1cccc(C[C@H](C)C(=O)OC)c1)c1nc(-c2cc(Sc3c(F)c(F)c4[nH]ccc4c3Br)ccc2F)n(C)n1, cc_pd bond, 18-membered ring, Pd(PtBu3)2/Et3N, toluene, 9.7 mM, 120.0 °C, 4.0 h) is on record?
Answer: 80%

Question: For COC(=O)[C@@H](C)Cc1cccc([C@@]2(C)CCCC(C)(C)CS(=O)(=O)/C=C/c3c(c(F)cc4[nH]ccc34)Sc3ccc(F)c(c3)-c3nc2nn3C)c1, which ring closure, isolated yield (from C=CS(=O)(=O)CC(C)(C)CCC[C@](C)(c1cccc(C[C@H](C)C(=O)OC)c1)c1nc(-c2cc(Sc3c(F)cc4[nH]ccc4c3Br)ccc2F)n(C)n1, cc_pd bond, 18-membered ring, Pd(PtBu3)2/Et3N, toluene, 25.9 mM, 120.0 °C, 2.5 h) is on record?
Answer: 69%

Question: With COC(=O)[C@H](C)Cc1cccc([C@@]2(C)CCCC(C)(C)CS(=O)(=O)C=Cc3c(c(F)cc4[nH]ccc34)Oc3ccnc(c3)-c3nc2nn3C)c1 as the compound, how does the ring closure, isolated yield (from C=CS(=O)(=O)CC(C)(C)CCC[C@](C)(c1cccc(C[C@@H](C)C(=O)OC)c1)c1nc(-c2cc(Oc3c(F)cc4[nH]ccc4c3Br)ccn2)n(C)n1, cc_pd bond, 18-membered ring, Pd(PtBu3)2/Et3N, toluene, 2.74 mM, 120.0 °C, 4.0 h) read?
Answer: 64%

Question: With Cn1nc2nc1-c1cc(ccc1F)Oc1c(F)cc3c(ccn3COCc3ccccc3)c1/C=C/S(=O)(=O)CCCCOC2c1cccc(CCCO)c1 (stereo not drawn) as the compound, how does the ring closure, isolated yield (from Cn1nc(C(OCCCCS(C)(=O)=O)c2cccc(CCCO)c2)nc1-c1cc(Oc2c(F)cc3c(ccn3COCc3ccccc3)c2C=O)ccc1F, other bond, 18-membered ring, NaH, DMF, 19.4 mM) read?
Answer: 26%

Question: Which ring closure, isolated yield (from Cn1nc(C(C)(CCSCC(C)(C)c2cn[nH]c2)c2cccc(Br)c2)nc1-c1cc(Oc2c(F)cc3c(ccn3S(=O)(=O)c3ccccc3)c2CO)ccc1F, other bond, 19-membered ring, cyanomethylenetributylphosphorane, toluene, 14.0 mM, 110.0 °C, 4.0 h) does the source give for Cn1nc2nc1-c1cc(ccc1F)Oc1c(F)cc3c(ccn3S(=O)(=O)c3ccccc3)c1Cn1cc(cn1)C(C)(C)CSCCC2(C)c1cccc(Br)c1 (stereo not drawn) here?
Answer: 37%

Question: With O=Cc1c(Oc2ccc(F)c(-c3ncc(C(CCCCCCS(=O)(=O)CC(=O)O)c4cccc(I)c4)[nH]3)c2)c(F)cc2[nH]ccc12 (stereo not drawn) as the compound, how does the ring closure, isolated yield (the molecule shown is the open-chain precursor, other bond, 19-membered ring, piperidine/AcOH, toluene, 2.7 mM, 100.0 °C) read?
Answer: 10%

Question: For [2H]C([2H])([2H])n1nc2nc1-c1cc(ccc1F)Oc1c(F)cc3[nH]ccc3c1C=C(C(=O)OCC)S(=O)(=O)CCCCCC2(C)c1cccc(OCC(=O)OCC)c1 (stereo not drawn), which ring closure, isolated yield (from [2H]C([2H])([2H])n1nc(C(C)(CCCC(C)(C)CS(=O)(=O)CC(=O)OCC)c2cccc(OCC(=O)OCC)c2)nc1-c1cc(Oc2c(F)cc3[nH]ccc3c2C=O)ccc1F, other bond, 18-membered ring, piperidine/AcOH, toluene, 2.6 mM, 110.0 °C) is on record?
Answer: 52%

Question: For “Diastereomer 1 of methyl 3-methoxy-2-(3-((R,1^4Z,5E)-2^6,4^6,4^7-trifluoro-1^1,9,9,13-tetramethyl-4^1-(methylsulfonyl)-7,7-dioxido-1^1H,4^1H-3,7-dithia-4(5,4)-indola-1(5,3)-triazola-2(1,3)-benzenacyclotridecaphan-5-en-13-yl)benzyl)propanoate”, which ring closure, isolated yield (cc_pd bond, 18-membered ring, chloro[(tBu3P)(2-aminobiphenyl-2-yl)Pd(II)]/tBu3P-HBF4/Cy2NMe, toluene, 16.8 mM, 120.0 °C) is on record?
Answer: 68%

Question: With “methyl (2R)-3-[3-[(14E)-23,29-difluoro-7,11,11-trimethyl-13,13-dioxo-20-(p-tolylsulfonyl)-25-oxa-13 6-thia-5,6,20-triazapentacyclo[24.3.1.02,6.016,24.017,21]triaconta-1(30),2,4,14,16,18,21,23,26,28-decaen-7-yl]phenyl]-2-methyl-propanoate” as the compound, how does the ring closure, isolated yield (cc_pd bond, 17-membered ring, Pd(PtBu3)2/Et3N, toluene, 0.65 mM, 100.0 °C) read?
Answer: 23%
